The text below walks through data of paper PMC3164776 (Biochemistry, 2010).

Values joined by “and” are separate entries in the source; they are usually repeats but may differ in a detail not shown here. Equal values may be shown once. Read-outs that look alike come from different tables or passages of the source.

The test system of one data set is KB-V1 cells. The note with it: for effect on MDR phenotype: cytotoxicity of paclitaxel and vinblastine, Supplemental Information 2; for change of LD50 / resistance in presence of 5-CHInd: 10 μM 5-CHInd over 72 hours, Figure 4A.
The target in data set [1] is T1, P-gp (Homo sapiens, UniProt P08183). The data set can be described thus: P-gp ATPase assay, hydrolysis of [γ-32P]-ATP by P-gp membranes. Format: biochemical.
T1 sequence (P08183 whole entry): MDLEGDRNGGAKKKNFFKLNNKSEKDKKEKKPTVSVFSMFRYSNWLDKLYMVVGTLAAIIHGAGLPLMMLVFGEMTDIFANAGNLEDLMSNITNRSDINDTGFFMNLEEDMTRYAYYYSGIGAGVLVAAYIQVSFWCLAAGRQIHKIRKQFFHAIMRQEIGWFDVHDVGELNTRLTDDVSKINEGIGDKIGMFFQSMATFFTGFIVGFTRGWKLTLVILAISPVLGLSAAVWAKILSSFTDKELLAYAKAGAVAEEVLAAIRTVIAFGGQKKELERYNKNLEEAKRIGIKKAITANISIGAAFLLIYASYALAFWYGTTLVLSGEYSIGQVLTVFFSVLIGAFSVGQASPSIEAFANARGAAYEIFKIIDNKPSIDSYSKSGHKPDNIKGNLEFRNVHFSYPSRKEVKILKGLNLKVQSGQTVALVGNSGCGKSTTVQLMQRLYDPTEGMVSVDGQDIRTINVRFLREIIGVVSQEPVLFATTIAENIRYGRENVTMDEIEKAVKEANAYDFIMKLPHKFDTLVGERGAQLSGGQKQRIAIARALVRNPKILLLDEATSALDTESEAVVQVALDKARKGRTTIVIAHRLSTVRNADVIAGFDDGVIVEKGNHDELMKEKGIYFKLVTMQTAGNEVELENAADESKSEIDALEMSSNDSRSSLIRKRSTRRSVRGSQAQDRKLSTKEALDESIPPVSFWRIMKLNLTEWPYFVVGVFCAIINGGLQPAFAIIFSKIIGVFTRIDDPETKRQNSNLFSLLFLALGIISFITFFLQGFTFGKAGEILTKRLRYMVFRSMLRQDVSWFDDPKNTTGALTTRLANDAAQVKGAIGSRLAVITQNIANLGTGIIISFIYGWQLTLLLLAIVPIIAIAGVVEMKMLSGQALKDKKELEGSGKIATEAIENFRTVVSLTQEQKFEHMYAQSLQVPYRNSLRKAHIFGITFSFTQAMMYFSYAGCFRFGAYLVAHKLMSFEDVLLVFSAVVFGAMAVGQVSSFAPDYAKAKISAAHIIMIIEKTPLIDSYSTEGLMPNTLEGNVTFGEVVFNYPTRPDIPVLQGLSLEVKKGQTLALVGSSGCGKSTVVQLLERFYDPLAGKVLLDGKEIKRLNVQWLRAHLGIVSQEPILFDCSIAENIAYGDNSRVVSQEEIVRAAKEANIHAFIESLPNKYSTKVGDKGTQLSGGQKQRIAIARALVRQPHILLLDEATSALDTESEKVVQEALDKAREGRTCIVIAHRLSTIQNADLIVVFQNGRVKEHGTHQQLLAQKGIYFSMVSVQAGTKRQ
Another data set deals with MDCK monolayers. The data set can be described thus: Monolayer efflux experiment, MDCK monolayers. The note with it: substance alone (10 μM 5-CHInd, 3 μM rhodamine 123, 4 μM calcein-AM).
The target in data set [2] is P-gp (MDCK-MDR1 monolayers) (Homo sapiens, UniProt P08183). The data set can be described thus: Monolayer efflux experiment, MDCK-MDR1 monolayers.
Chain of P-gp (MDCK-MDR1 monolayers) (P08183 whole entry): as above
The test system of another data set is KB3-1 cells. The data set can be described thus: MTT cytotoxicity assay in KB3-1 cells. Format: cell-based. On the technique in general: Tetrazolium assays rely on reduction of a dye to a coloured formazan, in cell work by metabolically active cells.
Data set [3] concerns the target T1, P-gp. As to the kind of experiment: PDSP cell-based screen: accumulation of calcein-AM in Caco-2 cells. The note with it: analogs of the screened nucleoside library.
Data set [4] in a line: Monolayer efflux experiment, MDCK monolayers. The note with it: dog.
In the next data set the target is P-gp (MDR1) (Homo sapiens, UniProt P08183). As to the kind of experiment: Monolayer efflux experiment, MDCK-MDR1 monolayers. To be noted: dog.
Chain of P-gp (MDR1) (P08183 whole entry): as above
The mark [5] stands for this setting: substance alone (10 μM 5-CHInd, 3 μM rhodamine 123, 4 μM calcein-AM), mean ± SEM.

In the case of `OC[C@H]1O[C@@H](n2ccc3cc(C4=CCCCC4)ccc32)C[C@@H]1O` [5-CEInd, 5-cyclohexene indolyl 2′-deoxyribose], the “effect on MDR phenotype” value in the data set with KB-V1 cells (KB-V1) is listed as “no significant effects on MDR phenotype”.

At P-gp [1], `OC[C@H]1O[C@@H](n2ccc3cc(C4CCCCC4)ccc32)C[C@@H]1O` [5-CHInd, 5-cyclohexyl indolyl 2′-deoxyribose] registered a Ki of 6.5 nM. In addition, the Km on P-gp [1] amounted to 0.06 ± 0.01 µM. Further, the Vmax at P-gp [1] is given as 16 ± 0.2 nmol Pi/min/mg protein. The “fold by which Ki is lower than Km” value on P-gp [1] (Ki vs Km value of 60 nM) was ~ 9 fold. Besides, the maximal non-toxic dose stood at 50 µM with KB-V1 cells (48 hour period) and 10 µM in the data set on KB-V1 cells (72 hour period). The LD50 worked out at 44 ± 5 µM in the data set on KB-V1 cells (KB-V1 (MDR positive), 72 hours post-treatment, MTT) and 45 ± 3 µM in the data set with KB3-1 cells (KB3-1 MDR −/−, 72 hours post-treatment, MTT). In addition, the “concentration at which cytotoxic” value with KB-V1 cells (MTT assay) was “greater than 50 μM”. Further, the “BL→AP/AP→BL (Peff ratio)” value was 8.7 ± 1.3 in the data set on MDCK monolayers; 11.1 and 11.1 ± 2.5 in data set [2] (setting [5]).

As for `O=[N+]([O-])c1ccc2c(ccn2C2CC(O)C(CO)O2)c1` (stereo not shown) [5-NInd], the “interaction with P-gp” value at P-gp [3] is on record as “do not interact with P-gp”.

On to `OC[C@H]1O[C@@H](n2ccc3cc(-c4ccccc4)ccc32)C[C@@H]1O` [5-PhInd, 5-phenyl indolyl 2′-deoxyribose], for which the “effect on MDR phenotype” value in the data set on KB-V1 cells (KB-V1) is given as “no significant effects on MDR phenotype”.

`COc1cc2c(c(OC)c1OC)-c1ccc(OC)c(=O)cc1[C@@H](NC(C)=O)CC2` [Colchicine, reference compound]: the Km at P-gp [1] turned out to be 37 ± 8 µM. For the same compound, in the data set with KB-V1 cells (KB-V1), the “change of LD50 / resistance in presence of 5-CHInd” value (“change of LD50 / resistance” for short) is “did not influence the LD50 values”.

As to `COc1cccc2c1C(=O)c1c(O)c3c(c(O)c1C2=O)C[C@@](O)(C(=O)CO)C[C@@H]3O[C@H]1C[C@H](N)[C@H](O)[C@H](C)O1` [Doxorubicin, reference compound], the “change of LD50 / resistance” value in the data set on KB-V1 cells (KB-V1) is “cells become more resistant”.

As to `CC(=O)O[C@H]1C(=O)[C@@]2(C)[C@H]([C@H](OC(=O)c3ccccc3)[C@]3(O)C[C@H](OC(=O)[C@H](O)[C@@H](NC(=O)c4ccccc4)c4ccccc4)C(C)=C1C3(C)C)[C@]1(OC(C)=O)CO[C@@H]1C[C@@H]2O` [Paclitaxel, reference compound], the “change of LD50 / resistance” value in the data set with KB-V1 cells (KB-V1) is given as “decreases”. The LD50 in the data set on KB-V1 cells (KB-V1, 48 hours, in presence of 50 μM 5-CHInd) is 0.49 ± 0.03 µM; with KB-V1 cells (KB-V1, 48 hours, no treatment with 5-CHInd) it was 4.0 ± 0.24 µM. Besides, the “potentiating effect of 5-CHInd” value in the data set on KB3-1 cells (KB3-1, does not overexpress P-gp, Supplemental Information 1) is given as “not observed”.

On to `COC(=O)c1ccccc1-c1c2ccc(=N)cc-2oc2cc(N)ccc12` [Rhodamine 123], for which the efflux ratio at 60 min, 3 μM in data set [4] was 1.2 ± 0.2; on P-gp (MDR1), 72.7 ± 15.3. Also, the “BL→AP/AP→BL (Peff ratio)” value in data set [2] (setting [5]) is recorded as 72.7.

As for `CC[C@]1(O)C[C@@H]2CN(CCc3c([nH]c4ccccc34)[C@@](C(=O)OC)(c3cc4c(cc3OC)N(C)[C@H]3[C@@](O)(C(=O)OC)[C@H](OC(C)=O)[C@]5(CC)C=CCN6CC[C@]43[C@@H]65)C2)C1` [Vinblastine, reference compound], the “change of LD50 / resistance” value in the data set with KB-V1 cells (KB-V1) was “cells become more resistant”.

Consider Calcein-AM, for which the “BL→AP/AP→BL (Peff ratio)” value is 2.6 ± 0.3 with MDCK monolayers, ~ 1 in data set [2] (4 μM calcein-AM + 10 μM 5-CHInd) and 2940 ± 120 in data set [2] (setting [5]).

Usually Ki stands for a dissociation constant, usually derived from enzyme kinetics or from competition with a known ligand. A high value points to lower affinity. By Km is commonly meant the substrate concentration at which the rate is half of its maximum. As usually defined, the efflux ratio is a quotient of directional permeabilities that is used to spot active efflux.
